Source: patent EP0908457B1, “3-(1,2-benzisothiazol- and isoxazol-5-Y1)-2,4(1H,3H)-pyrimidinedione or thione and 3-(1,2-benzisothiazol- and isoxazol-5-y1)-4(3H)-pyrimidinone or thione herbicidal agents” (BASF AKTIENGESELLSCHAFT, priority 1997, dated 1999)

How the values were obtained:
[1] = system: Echinochloa oryzoides (Ard.) Fritsch.; assay: Preemergence weed control under flooded paddy conditions, ECHORC (Watergrass (Calif.)); assay type: in vivo; conditions: flooded paddy, rated three to four weeks after treatment; for herbicidal effect rating, ECHORC: preemergence weeds; for ECHORC herbicidal effect rating: preemergence; on herbicidal effect rating, ECHORC: meaning of each grade not given here
Cyperus iria = assay: Preemergence weed control under flooded paddy conditions, CYPIR (Rice Flatsedge); assay type: in vivo; conditions: flooded paddy, rated three to four weeks after treatment; for herbicidal effect rating, CYPIR: preemergence weeds; for CYPIR herbicidal effect rating: preemergence; on herbicidal effect rating, CYPIR: meaning of each grade not given here
[2] = system: Cyperus serotinus, Rottb.; assay: Preemergence weed control under flooded paddy conditions, CYPSE (Flatsedge); assay type: in vivo; conditions: rated three to four weeks after treatment; for herbicidal effect rating, CYPSE: preemergence weeds; for CYPSE herbicidal effect rating: preemergence; on herbicidal effect rating, CYPSE: meaning of each grade not given here
[3] = system: Monochoria vaginalis, Presl.; assay: Preemergence weed control under flooded paddy conditions, MOOVA (Monochoria); assay type: in vivo; conditions: flooded paddy, rated three to four weeks after treatment; for herbicidal effect rating, MOOVA: preemergence weeds; for MOOVA herbicidal effect rating: preemergence; on herbicidal effect rating, MOOVA: meaning of each grade not given here
Sagittaria pygmaea, L. = assay: Preemergence weed control under flooded paddy conditions, SAGPY (Arrowhead (Pygmaea)); assay type: in vivo; conditions: flooded paddy, rated three to four weeks after treatment; for herbicidal effect rating, SAGPY: preemergence weeds; for SAGPY herbicidal effect rating: preemergence; on herbicidal effect rating, SAGPY: meaning of each grade not given here
[4] = system: Oryza sativa, (L.) Tebonnet; assay: Rice tolerance to post-transplant applications under flooded paddy conditions (Example 187), ORYSAT (Rice, Tebonnet); conditions: rated three to four weeks after treatment

| Structure (SMILES) | herbicidal effect rating, ECHORC ([1]; 0.0313 kg/ha) | herbicidal effect rating, ECHORC ([1]; 0.0625 kg/ha) | herbicidal effect rating, ECHORC ([1]; 0.1250 kg/ha) | herbicidal effect rating, ECHORC ([1]; 0.2500 kg/ha) | herbicidal effect rating, CYPIR (Cyperus iria; 0.0313 kg/ha) | herbicidal effect rating, CYPIR (Cyperus iria; 0.0625 kg/ha) | herbicidal effect rating, CYPIR (Cyperus iria; 0.1250 kg/ha) | herbicidal effect rating, CYPIR (Cyperus iria; 0.2500 kg/ha) | herbicidal effect rating, CYPSE ([2]; 0.0313 kg/ha) | herbicidal effect rating, CYPSE ([2]; 0.0625 kg/ha) | herbicidal effect rating, CYPSE ([2]; 0.1250 kg/ha) | herbicidal effect rating, CYPSE ([2]; 0.2500 kg/ha) | herbicidal effect rating, MOOVA ([3]; 0.0313 kg/ha) | herbicidal effect rating, MOOVA ([3]; 0.0625 kg/ha) | herbicidal effect rating, MOOVA ([3]; 0.1250 kg/ha) | herbicidal effect rating, MOOVA ([3]; 0.2500 kg/ha) | herbicidal effect rating, SAGPY (Sagittaria pygmaea, L.; 0.0313 kg/ha) | herbicidal effect rating, SAGPY (Sagittaria pygmaea, L.; 0.0625 kg/ha) | herbicidal effect rating, SAGPY (Sagittaria pygmaea, L.; 0.2500 kg/ha) | herbicidal effect rating, ORYSAT (rice tolerance) ([4]; 0.2500 kg/ha) | further results |
| --- | --- | --- | --- | --- | --- | --- | --- | --- | --- | --- | --- | --- | --- | --- | --- | --- | --- | --- | --- | --- | --- |
| CCCCOCc1nsc2ccc(-n3c(=O)cc(C(F)(F)F)n(C)c3=O)cc12 [Example 204, 3-[3-(Butoxymethyl)-1,2-benzisothiazol-5-yl]-1-methyl-6-(trifluoromethyl)-2,4(1H,3H)-pyrimidinedione] | 0.0 | 2.0 | 4.0 | 9.0 | 9.0 | 9.0 | 9.0 | 9.0 | 0.0 | 0.0 | 2.0 | 7.0 | 0.0 | 2.0 | 4.0 | 7.0 | 0.0 | 0.0 | 0.0 | 7.0 | herbicidal effect rating, SAGPY (Sagittaria pygmaea, L.; 0.1250 kg/ha): 0.0; herbicidal effect rating, ORYSAT (rice tolerance) ([4]; 0.0313 kg/ha): 3.0; herbicidal effect rating, ORYSAT (rice tolerance) ([4]; 0.0625 kg/ha): 4.0; herbicidal effect rating, ORYSAT (rice tolerance) ([4]; 0.1250 kg/ha): 7.0 |
| C=CC(C)OCc1nsc2ccc(-n3c(=O)cc(C(F)(F)F)n(C)c3=O)cc12 (stereo not drawn) [Example 206, 1-Methyl-3-{3-[(1-methylallyloxy)methyl]-1,2-benzisothiazol-5-yl]-6-(trifluoromethyl)-2,4(1H,3H)-pyrimidinedione] | 0.0 | 2.0 | 2.0 | 9.0 | 9.0 | 9.0 | 9.0 | 9.0 | 0.0 | 2.0 | 7.0 | 7.0 | 0.0 | 0.0 | 1.0 | 4.0 | 0.0 | 0.0 | 4.0 | 9.0 | herbicidal effect rating, SAGPY (Sagittaria pygmaea, L.; 0.1250 kg/ha): 1.0; herbicidal effect rating, ORYSAT (rice tolerance) ([4]; 0.0313 kg/ha): 5.0; herbicidal effect rating, ORYSAT (rice tolerance) ([4]; 0.0625 kg/ha): 6.0; herbicidal effect rating, ORYSAT (rice tolerance) ([4]; 0.1250 kg/ha): 7.0 |
| Cn1c(C(F)(F)F)cc(=O)n(-c2ccc3snc(COC(CF)CF)c3c2)c1=O [Example 207, 3-{3-{[2-Fluoro-1-(fluoromethyl)ethoxy]methyl}-1,2-benzisothiazol-5-yl}-1-methyl-6-(trifluoromethyl)-2,4(1H,3H)-pyrimidinedione] |  |  |  | 5.5 |  |  |  | 8.5 |  |  |  | 6.0 |  |  |  | 7.5 |  |  | 1.0 | 7.5 | ECHORC herbicidal effect rating ([1]; Rate 0.0313 kg/ha): 1.0; ECHORC herbicidal effect rating ([1]; Rate 0.0625 kg/ha): 1.5; ECHORC herbicidal effect rating ([1]; Rate 0.1250 kg/ha): 2.0; CYPIR herbicidal effect rating (Cyperus iria; Rate 0.0313 kg/ha): 5.5; CYPIR herbicidal effect rating (Cyperus iria; Rate 0.0625 kg/ha): 6.5; CYPIR herbicidal effect rating (Cyperus iria; Rate 0.1250 kg/ha): 8.5; CYPSE herbicidal effect rating ([2]; Rate 0.0313 kg/ha): 0.0; CYPSE herbicidal effect rating ([2]; Rate 0.0625 kg/ha): 0.0; CYPSE herbicidal effect rating ([2]; Rate 0.1250 kg/ha): 1.0; MOOVA herbicidal effect rating ([3]; Rate 0.0313 kg/ha): 4.0; MOOVA herbicidal effect rating ([3]; Rate 0.0625 kg/ha): 4.5; MOOVA herbicidal effect rating ([3]; Rate 0.1250 kg/ha): 5.5; SAGPY herbicidal effect rating (Sagittaria pygmaea, L.; Rate 0.0313 kg/ha): 0.0; SAGPY herbicidal effect rating (Sagittaria pygmaea, L.; Rate 0.0625 kg/ha): 0.0; SAGPY herbicidal effect rating (Sagittaria pygmaea, L.; Rate 0.1250 kg/ha): 0.0; ORYSAT herbicidal effect rating ([4]; Rate 0.0313 kg/ha): 5.0; ORYSAT herbicidal effect rating ([4]; Rate 0.0625 kg/ha): 6.0; ORYSAT herbicidal effect rating ([4]; Rate 0.1250 kg/ha): 7.0 |
